Experimental data from ChEMBL document CHEMBL1201862, “PubChem BioAssay data set” (2004).
“And” between values parts separate entries of the source, which are not always exact repeats. Identical values can stand only once. The source made the active and inactive calls.

Tests used:
[1] = test system: HEK293; assay: cells; conditions: Homo sapiens
[2] = test system: HEK293; assay: cells; conditions: Homo sapiens; remark: listed apart in the source
[3] = cytotoxicity in HEK-293T cells, dose response, cytotoxicity control for TCR NF-kB inhibitor project, luminescence, T-cell screen hits (AID 489026); type: functional, cell-based;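 note: cells exposed to compound about 14 hours before the viability readout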
[4] = test system: J774.A1; assay: Confirmation of image-based Screening Assay for Inhibitors of Phagocytosis. [Related pubchem assays (depositor defined):AID1029, AID1643]; type: functional, cell-based; conditions: Mus musculus
[5] = molecular target: Estrogen receptor (Homo sapiens, UniProt P03372);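 note: potency for inhibiting coactivator peptide recruitment to the receptor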
[6] = molecular target: T1, Delta-type opioid receptor (Homo sapiens, UniProt P41143); assay: HTS Image-Based Screen for Agonists of the DOR Receptor. [Related pubchem assays (depositor defined):AID1777, AID1786, AID2133]; type: functional
T1 sequence (P41143 whole entry): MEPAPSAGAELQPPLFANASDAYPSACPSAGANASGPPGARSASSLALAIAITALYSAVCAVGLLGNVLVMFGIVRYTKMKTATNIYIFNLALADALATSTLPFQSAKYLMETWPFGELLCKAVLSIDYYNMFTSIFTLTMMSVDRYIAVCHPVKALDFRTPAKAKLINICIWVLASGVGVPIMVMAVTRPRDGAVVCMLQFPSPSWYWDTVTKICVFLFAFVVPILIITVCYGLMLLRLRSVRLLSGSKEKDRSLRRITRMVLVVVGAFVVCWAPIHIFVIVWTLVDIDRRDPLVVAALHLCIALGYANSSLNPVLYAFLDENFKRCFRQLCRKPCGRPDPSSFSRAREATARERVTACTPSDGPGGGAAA

[7] = molecular target: T1, Delta-type opioid receptor; assay: HTS Image-Based Screen for Antagonists of the DOR Receptor. [Related pubchem assays (depositor defined):AID1777, AID1785, AID1786, AID2133]; type: functional
[8] = molecular target: T2, Estrogen receptor beta (Homo sapiens, UniProt Q92731); assay: ERβ–SRC-3 coactivator interaction inhibitors, confirmation, orthogonal assay, biochemical, ELISA, streptavidin-HRP readout (AID 1060)
T2 sequence (Q92731 whole entry): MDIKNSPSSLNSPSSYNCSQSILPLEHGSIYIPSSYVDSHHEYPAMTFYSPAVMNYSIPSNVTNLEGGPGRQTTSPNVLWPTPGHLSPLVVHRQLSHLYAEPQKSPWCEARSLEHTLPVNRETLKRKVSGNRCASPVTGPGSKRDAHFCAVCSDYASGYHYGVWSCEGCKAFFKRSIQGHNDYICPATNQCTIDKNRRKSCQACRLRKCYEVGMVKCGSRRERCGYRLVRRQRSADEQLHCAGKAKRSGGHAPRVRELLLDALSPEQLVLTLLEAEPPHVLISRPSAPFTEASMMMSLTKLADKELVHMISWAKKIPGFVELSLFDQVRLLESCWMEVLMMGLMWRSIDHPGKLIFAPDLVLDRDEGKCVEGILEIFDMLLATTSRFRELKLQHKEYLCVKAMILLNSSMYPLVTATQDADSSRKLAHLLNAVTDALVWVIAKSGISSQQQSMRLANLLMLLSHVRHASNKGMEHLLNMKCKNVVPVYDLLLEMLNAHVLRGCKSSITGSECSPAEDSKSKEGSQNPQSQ

[9] = molecular target: T3, Kappa-type opioid receptor (Homo sapiens, UniProt P41145); type: functional
T3 sequence (P41145 whole entry): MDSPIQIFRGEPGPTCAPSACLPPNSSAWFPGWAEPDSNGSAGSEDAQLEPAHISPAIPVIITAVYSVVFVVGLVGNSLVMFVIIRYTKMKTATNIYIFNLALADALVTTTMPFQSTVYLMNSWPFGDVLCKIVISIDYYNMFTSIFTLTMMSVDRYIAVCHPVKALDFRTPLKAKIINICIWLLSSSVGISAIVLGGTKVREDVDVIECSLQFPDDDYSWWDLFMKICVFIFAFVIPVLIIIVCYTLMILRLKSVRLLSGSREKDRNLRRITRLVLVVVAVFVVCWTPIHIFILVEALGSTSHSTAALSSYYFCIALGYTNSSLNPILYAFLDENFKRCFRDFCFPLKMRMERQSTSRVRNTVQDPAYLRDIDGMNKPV

[10] = molecular target: Mu-type opioid receptor (Homo sapiens, UniProt P35372); assay: HTS Image-Based Screen for Agonists of the MOR Receptor. [Related pubchem assays (depositor defined):AID1777, AID1785, AID1786, AID2133]; type: functional;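 note: imaging of beta-arrestin GFP recruitment into spots after receptor activation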
Chain of Mu-type opioid receptor (P35372 whole entry): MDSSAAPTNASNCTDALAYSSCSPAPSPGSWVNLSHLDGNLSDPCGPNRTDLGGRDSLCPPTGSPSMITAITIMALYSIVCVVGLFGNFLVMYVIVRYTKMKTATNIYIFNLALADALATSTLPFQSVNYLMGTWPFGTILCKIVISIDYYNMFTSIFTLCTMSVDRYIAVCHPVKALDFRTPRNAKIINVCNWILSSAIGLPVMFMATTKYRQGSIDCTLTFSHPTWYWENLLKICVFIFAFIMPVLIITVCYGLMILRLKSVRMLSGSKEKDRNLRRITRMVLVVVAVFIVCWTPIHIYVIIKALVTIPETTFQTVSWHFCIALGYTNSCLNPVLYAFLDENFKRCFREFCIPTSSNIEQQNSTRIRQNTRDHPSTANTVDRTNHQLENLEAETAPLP

[11] = molecular target: T3, Kappa-type opioid receptor; type: functional; remark: listed apart in the source
[12] = molecular target: T2, Estrogen receptor beta
[13] = cytotoxicity in BJeH fibroblasts, dose response, counter-screen for Ras selective lethality project, BJeH cells, dry powder (AID 493054); type: functional, cell-based
[14] = viability loss in BJeLR (HRASV12) cells, primary screen, Ras selective lethality project, cell-based, Alamar Blue, dry powder (AID 493045); type: functional
[15] = non-specific cell cytotoxicity, dose response, cytotoxicity control for PAX8 inhibitor project, plate reader, dry powder samples (AID 743021); type: functional, cell-based
[16] = C2C12 myoblast ATP-based viability loss, dose response, cytotoxicity control for HRAS target identification, cell-based, CellTiter-Glo ATP luminescence, 8/24/48 h, dry powder (AID 720603); type: functional
[17] = HT-29 colorectal cell cytotoxicity over time, dose response, HRas target identification project, CellTiter-Glo, multiple timepoints, dry powder (AID 720598); type: functional, cell-based
[18] = cytotoxicity in BJeHLT fibroblasts, dose response, counter-screen for Ras selective lethality project, BJeHLT cells, dry powder (AID 493052); type: functional, cell-based; conditions: Homo sapiens
[19] = growth suppression of PTEN-null colon cells, dose response, cell-based, HCT116 PTEN knockout (AID 1047); type: functional;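 note: HCT116 colon tumor cells with PTEN knocked out; cells exposed to compound for 60 hours before readout; potency for loss of cell viability measured by luminescence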
[20] = U-251 glioblastoma cell viability loss, dose response, HRAS target identification, Alamar Blue fluorescence, 8/24/48 h, dry powder (AID 720605); type: functional, cell-based
[21] = test system: INS1; assay: beta cell apoptosis inhibitors, cytokine rescue, dose response, luminescence, retest (AID 449756); type: functional, cell-based; conditions: Rattus norvegicus;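 note: cell death triggered by IL-1 beta plus TNF-alpha plus IFN-gamma mixture; protective hits raise ATP signal compared with cytokine alone wells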
[22] = HUVEC endothelial cell viability loss, dose response, cytotoxicity control for HRAS target identification, CellTiter-Glo ATP luminescence, 8/24/48 h, dry powder (AID 720604); type: functional, cell-based
[23] = molecular target: T4, Protein RecA (Mycobacterium tuberculosis, UniProt P9WHJ3); assay: Fluorescence Cell-Free Homogeneous Dose Retest to Identify Inhibitors of RecA-Intein Splicing Activity. [Related pubchem assays (depositor defined):AID2097, AID2223, AID489010, AID492950]; type: functional
T4 sequence (P9WHJ3 whole entry): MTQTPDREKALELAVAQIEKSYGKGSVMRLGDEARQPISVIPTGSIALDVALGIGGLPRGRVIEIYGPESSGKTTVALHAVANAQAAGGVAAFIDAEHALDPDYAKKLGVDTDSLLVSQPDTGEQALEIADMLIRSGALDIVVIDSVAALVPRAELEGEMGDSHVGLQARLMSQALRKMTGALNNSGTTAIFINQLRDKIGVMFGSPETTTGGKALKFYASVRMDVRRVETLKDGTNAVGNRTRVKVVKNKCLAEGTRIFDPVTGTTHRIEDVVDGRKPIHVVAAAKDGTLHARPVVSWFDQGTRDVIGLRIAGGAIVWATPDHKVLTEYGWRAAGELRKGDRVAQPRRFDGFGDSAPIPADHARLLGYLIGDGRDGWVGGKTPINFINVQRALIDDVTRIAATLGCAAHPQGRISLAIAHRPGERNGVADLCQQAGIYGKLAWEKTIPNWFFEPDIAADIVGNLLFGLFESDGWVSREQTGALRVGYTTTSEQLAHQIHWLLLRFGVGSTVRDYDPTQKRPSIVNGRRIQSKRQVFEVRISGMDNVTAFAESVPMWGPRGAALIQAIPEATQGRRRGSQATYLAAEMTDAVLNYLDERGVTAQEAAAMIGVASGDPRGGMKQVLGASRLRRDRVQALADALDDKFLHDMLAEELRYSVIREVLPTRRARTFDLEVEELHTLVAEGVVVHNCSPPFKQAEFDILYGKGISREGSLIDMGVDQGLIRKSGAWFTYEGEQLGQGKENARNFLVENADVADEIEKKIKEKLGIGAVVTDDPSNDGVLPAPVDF

[24] = molecular target: T5, Fatty acid synthase (Homo sapiens, UniProt P49327); assay: FAS thioesterase domain inhibitors, dose response, biochemical, endpoint fluorescence intensity, uHTS hits (AID 624327); type: functional;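 note: fluorescence from hydrolysis of an O-methyl fluorescein acyl ester substrate by the enzyme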
T5 sequence (P49327 whole entry, the tested form may be a part): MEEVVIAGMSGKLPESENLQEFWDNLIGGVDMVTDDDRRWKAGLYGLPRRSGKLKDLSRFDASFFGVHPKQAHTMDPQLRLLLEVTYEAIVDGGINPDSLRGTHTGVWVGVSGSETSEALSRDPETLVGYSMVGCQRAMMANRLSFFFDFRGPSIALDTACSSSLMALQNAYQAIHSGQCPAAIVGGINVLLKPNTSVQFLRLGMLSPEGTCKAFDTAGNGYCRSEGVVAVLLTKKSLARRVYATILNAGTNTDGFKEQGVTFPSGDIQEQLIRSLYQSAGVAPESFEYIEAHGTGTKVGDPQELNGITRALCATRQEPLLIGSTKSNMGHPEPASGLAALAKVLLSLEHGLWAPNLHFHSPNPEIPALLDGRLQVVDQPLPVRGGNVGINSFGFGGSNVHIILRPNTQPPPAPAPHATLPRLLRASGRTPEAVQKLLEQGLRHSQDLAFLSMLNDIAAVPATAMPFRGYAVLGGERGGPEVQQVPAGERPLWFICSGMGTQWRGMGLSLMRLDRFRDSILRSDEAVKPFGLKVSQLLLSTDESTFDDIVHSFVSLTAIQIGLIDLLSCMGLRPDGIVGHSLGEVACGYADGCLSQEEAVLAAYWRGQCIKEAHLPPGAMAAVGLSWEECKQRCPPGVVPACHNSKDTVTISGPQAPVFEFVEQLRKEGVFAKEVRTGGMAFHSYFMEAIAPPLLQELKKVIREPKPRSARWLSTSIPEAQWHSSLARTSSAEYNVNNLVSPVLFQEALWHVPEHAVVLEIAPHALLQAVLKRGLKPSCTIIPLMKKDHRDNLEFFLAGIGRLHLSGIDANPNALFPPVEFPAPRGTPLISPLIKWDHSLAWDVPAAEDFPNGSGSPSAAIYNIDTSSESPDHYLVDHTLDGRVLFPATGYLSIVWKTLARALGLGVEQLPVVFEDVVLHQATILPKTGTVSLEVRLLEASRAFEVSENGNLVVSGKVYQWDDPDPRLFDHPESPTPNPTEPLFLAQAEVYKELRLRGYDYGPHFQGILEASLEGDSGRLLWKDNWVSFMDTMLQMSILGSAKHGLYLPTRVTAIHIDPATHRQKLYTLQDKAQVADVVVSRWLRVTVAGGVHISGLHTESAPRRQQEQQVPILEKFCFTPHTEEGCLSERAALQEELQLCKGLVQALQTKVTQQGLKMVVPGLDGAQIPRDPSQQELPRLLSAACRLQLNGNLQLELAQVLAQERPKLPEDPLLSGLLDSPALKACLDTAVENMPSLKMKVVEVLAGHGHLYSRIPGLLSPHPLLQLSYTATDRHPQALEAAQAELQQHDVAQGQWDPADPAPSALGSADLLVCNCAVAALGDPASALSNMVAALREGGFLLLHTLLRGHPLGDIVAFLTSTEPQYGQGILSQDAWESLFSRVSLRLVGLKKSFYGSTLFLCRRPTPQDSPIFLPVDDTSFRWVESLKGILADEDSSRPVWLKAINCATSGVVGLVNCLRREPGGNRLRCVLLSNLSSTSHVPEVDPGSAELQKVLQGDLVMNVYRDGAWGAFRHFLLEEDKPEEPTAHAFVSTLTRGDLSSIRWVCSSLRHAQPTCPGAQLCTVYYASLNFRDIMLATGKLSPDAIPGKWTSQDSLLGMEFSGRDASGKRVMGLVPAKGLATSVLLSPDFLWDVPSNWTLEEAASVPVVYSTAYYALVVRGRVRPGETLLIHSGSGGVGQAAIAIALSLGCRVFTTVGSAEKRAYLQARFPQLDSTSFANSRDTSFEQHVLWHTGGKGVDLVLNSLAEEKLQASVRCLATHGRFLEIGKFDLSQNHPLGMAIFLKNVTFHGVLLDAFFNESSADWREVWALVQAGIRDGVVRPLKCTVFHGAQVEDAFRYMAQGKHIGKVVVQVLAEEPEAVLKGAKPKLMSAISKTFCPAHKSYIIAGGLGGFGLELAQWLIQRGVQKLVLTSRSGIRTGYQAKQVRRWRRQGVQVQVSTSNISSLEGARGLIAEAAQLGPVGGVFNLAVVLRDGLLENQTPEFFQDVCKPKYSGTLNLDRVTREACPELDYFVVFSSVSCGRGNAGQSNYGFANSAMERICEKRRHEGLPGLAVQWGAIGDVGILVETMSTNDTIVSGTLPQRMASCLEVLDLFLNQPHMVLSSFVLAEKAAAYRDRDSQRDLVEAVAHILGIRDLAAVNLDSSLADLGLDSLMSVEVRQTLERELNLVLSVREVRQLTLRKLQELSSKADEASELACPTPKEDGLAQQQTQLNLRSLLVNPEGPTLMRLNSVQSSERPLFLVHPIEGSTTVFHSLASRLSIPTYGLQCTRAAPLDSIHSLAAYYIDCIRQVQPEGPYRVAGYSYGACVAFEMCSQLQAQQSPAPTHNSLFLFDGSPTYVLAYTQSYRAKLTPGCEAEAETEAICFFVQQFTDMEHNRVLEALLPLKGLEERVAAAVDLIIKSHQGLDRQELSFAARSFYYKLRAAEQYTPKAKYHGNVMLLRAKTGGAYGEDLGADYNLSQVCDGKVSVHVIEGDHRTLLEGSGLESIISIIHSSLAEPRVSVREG

[25] = test system: BJ; assay: cytotoxicity toward Ras-transformed BJeLR fibroblasts, dose response, cell-based, alamar blue fluorescence, cherrypicked samples (AID 2631); type: functional; conditions: Homo sapiens;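 note: confirmatory dose-response assay in RAS-dependent BJ fibroblasts engineered with TERT, LT and ST, with cytotoxicity read by fluorescence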
[26] = molecular target: T6, Replicative DNA helicase DnaB (Mycobacterium tuberculosis, UniProt P9WMR3); assay: DnaB intein splicing inhibitors, dose response, biochemical, cell-free fluorescence (AID 449749); type: functional
T6 sequence (P9WMR3 whole entry): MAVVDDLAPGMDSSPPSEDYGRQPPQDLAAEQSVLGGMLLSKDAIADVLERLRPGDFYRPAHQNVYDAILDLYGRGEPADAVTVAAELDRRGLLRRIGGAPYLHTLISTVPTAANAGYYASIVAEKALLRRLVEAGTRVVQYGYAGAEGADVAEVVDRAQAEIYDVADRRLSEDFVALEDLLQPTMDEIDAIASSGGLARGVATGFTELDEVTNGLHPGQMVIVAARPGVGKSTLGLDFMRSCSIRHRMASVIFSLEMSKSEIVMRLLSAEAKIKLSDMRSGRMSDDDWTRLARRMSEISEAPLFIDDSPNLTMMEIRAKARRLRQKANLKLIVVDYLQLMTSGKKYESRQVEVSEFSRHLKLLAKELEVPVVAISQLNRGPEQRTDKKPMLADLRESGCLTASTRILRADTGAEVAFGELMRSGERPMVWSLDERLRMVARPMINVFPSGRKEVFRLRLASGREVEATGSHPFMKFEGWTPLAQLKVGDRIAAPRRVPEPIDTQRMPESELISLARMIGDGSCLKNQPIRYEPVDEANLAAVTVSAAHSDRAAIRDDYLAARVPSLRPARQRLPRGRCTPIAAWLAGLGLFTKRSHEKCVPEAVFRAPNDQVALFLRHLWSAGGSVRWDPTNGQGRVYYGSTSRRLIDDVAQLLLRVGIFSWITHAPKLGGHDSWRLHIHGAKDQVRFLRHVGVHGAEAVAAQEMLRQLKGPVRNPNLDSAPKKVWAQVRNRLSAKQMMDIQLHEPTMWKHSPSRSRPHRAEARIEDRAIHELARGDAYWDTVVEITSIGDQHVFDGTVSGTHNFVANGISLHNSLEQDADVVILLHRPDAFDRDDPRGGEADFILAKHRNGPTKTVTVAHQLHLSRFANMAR

[27] = SNB-19 glioblastoma cell viability over time, late-stage follow-up, mechanism study for HRAS target identification, CellTiter-Glo ATP luminescence, 8-48 h, dry powder (AID 720611); type: functional, cell-based
[28] = SR lymphoma cell viability over time, late-stage follow-up, mechanism study for HRAS target identification, CellTiter-Glo ATP luminescence, 8-48 h, dry powder (AID 720608); type: functional, cell-based
[29] = molecular target: T5, Fatty acid synthase; assay: FAS thioesterase domain inhibitors, dose response, biochemical, kinetic fluorescence intensity (AID 624326); type: functional;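 note: rate of fluorescence rise from hydrolysis of a fluorogenic O-methyl fluorescein ester substrate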
[30] = U-251 glioblastoma cell viability loss, late-stage follow-up, mechanism study for HRAS target identification, CellTiter-Glo ATP luminescence, several timepoints, dry powder (AID 720616); type: functional, cell-based
[31] = nonselective inhibitors of cellular cAMP signaling, dose response, counter-screen for MC4R biased antagonist project, cell-based, TR-FRET cAMP detection (AID 602305); type: functional;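 note: U2OS cells stimulated with forskolin near its EC80 as the cAMP inducer; potency is for inhibition of forskolin-stimulated cAMP signaling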
[32] = CCRF-CEM leukemia cell viability loss, dose response, HRAS target identification, CellTiter-Glo ATP luminescence, 8/24/48 h, dry powder (AID 720607); type: functional, cell-based
[33] = LOX IMVI melanoma cell viability loss, dose response, HRAS target identification, CellTiter-Glo ATP luminescence, 8/24/48 h, dry powder (AID 720602); type: functional, cell-based
[34] = molecular target: Melanocortin receptor 4 (Homo sapiens, UniProt P32245); assay: MC4R antagonist potency on cAMP, dose response, cell-based, TR-FRET, biased antagonists (AID 602298); type: functional;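 note: antagonist potency against agonist-stimulated cAMP production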
[35] = molecular target: Paired box protein Pax-8 (Homo sapiens, UniProt Q06710); assay: inhibitors of PAX8-driven TPO luciferase reporter, dose response, RMG-I cells, cherry-pick (AID 687027); type: functional, cell-based;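 note: luciferase reporter driven by Pax8 target thyroperoxidase promoter measured by SteadyGlo luminescence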
Chain of Paired box protein Pax-8 (Q06710 whole entry): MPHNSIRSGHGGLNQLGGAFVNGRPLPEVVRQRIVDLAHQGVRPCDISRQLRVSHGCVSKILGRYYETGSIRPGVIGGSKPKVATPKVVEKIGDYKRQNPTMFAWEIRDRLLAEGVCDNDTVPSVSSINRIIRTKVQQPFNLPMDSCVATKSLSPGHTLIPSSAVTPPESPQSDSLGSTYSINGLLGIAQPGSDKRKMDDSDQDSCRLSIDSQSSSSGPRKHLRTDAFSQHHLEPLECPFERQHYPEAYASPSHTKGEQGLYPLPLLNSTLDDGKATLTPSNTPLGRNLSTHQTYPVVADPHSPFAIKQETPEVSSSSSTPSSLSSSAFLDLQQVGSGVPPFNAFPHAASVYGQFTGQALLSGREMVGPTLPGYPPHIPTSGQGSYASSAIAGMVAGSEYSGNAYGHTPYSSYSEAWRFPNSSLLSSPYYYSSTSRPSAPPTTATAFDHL

[36] = HeLa cell viability over time, late-stage follow-up, mechanism study for HRAS target identification, CellTiter-Glo ATP luminescence, 8-48 h, dry powder (AID 720609); type: functional, cell-based
[37] = viability loss in HRASV12 DRD fibroblasts, dose response, cell-based, DRD BJ fibroblasts, dry powder (AID 493049); type: functional
[38] = growth suppression of beta-catenin-knockout colon cells, dose response, cell-based, HCT116, human colon tumor (AID 1045); type: functional;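 note: HCT116 colon tumor cells with beta catenin knocked out; cells exposed to compound for 60 hours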
[39] = molecular target: Caspase-7 (Homo sapiens, UniProt P55210); assay: procaspase-7 activators, dose response, dual procaspase-3/-7 activator project, biochemical, absorbance, human (AID 504330)
[40] = A Cell Based Secondary Assay To Explore Cytotoxicity of Compounds that Sensitize Mycobacterium Tuberculosis to Beta-Lactam Antibiotics.; type: functional
[41] = molecular target: T7, Caspase-3 (Homo sapiens, UniProt P42574); assay: procaspase-3 activation potency of dual hits, dose response, counter-screen for dual procaspase-3/7 activator project, biochemical, absorbance, PC-3 D3A mutant (AID 504328)
T7 sequence (P42574 whole entry): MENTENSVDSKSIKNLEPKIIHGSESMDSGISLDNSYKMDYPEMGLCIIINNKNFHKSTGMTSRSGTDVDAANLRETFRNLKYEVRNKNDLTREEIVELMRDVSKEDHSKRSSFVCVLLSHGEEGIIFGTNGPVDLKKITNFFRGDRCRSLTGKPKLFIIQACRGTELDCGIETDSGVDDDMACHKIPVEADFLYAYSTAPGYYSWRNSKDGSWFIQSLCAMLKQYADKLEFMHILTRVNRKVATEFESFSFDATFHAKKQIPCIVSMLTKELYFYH

[42] = molecular target: G-protein coupled receptor 35 (Homo sapiens, UniProt Q9HC97); assay: GPR35 antagonists blocking zaprinast-driven arrestin recruitment, primary screen, imaging, U2OS, beta-arrestin-GFP, zaprinast agonist (AID 2058); type: functional;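 note: antagonist potency meaning inhibition of agonist-induced arrestin redistribution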
Chain of G-protein coupled receptor 35 (Q9HC97 whole entry): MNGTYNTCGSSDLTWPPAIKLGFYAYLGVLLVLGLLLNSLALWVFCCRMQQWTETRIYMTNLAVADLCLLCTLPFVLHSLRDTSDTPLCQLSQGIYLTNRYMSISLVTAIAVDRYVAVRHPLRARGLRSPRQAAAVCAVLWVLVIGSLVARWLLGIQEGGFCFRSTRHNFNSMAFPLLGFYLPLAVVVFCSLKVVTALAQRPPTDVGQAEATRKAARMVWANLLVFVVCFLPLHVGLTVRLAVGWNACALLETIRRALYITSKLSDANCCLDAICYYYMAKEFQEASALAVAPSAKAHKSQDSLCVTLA

Structure (SMILES): Cc1ccc(C(=O)Nc2ncc(Cc3ccc(SC(F)F)cc3)s2)cc1
- EC50 [1]: > 59.7 µM (inactive)
- EC50 [2]: > 59.7 µM (inactive)
- IC50 [3]: > 80 µM (inactive)
- IC50 [4]: 1.75 µM (active)

Structure (SMILES): N#Cc1ccc(-c2cccnc2)nc1SCC(=O)Nc1sc2c(c1C#N)CCC2
- IC50 [5]: 15 µM (active)
- EC50 [6]: > 32 µM (inactive)
- IC50 [7]: > 32 µM (inactive)
- IC50 [8]: 3.69 µM (not active) and 149 nM (not active)
- EC50 [9]: > 35 µM
- EC50 [10]: > 32 µM (inactive)
- EC50 [11]: 16 µM
- IC50 [12]: > 50 µM (not active)

Structure (SMILES): COc1ccc(N(C(=O)CCl)C(C(=O)NCCc2ccccc2)c2cccs2)cc1Cl (stereo unspecified)
- AC50 [13]: 0.76 µM (active)
- AC50 [14]: 0.249 µM (active)
- AC50 [15]: 2.16 µM (active)
- AC50 [16]: 6.07 µM (active)
- AC50 [17]: 0.296 µM (active)
- AC50 [18]: 0.847 µM (active)
- EC50 [19]: 1.48 µM (active)
- AC50 [20]: 0.0572 µM (active)
- AC50 [21]: 2.82 µM (active)
- AC50 [22]: 12 µM (active)
- EC50 [23]: 0.24 µM (active)
- IC50 [24]: 10.2 µM (active)
- EC50 [25]: 0.167 µM (active)
- AC50 [26]: 1.82 µM (active)
- AC50 [27]: 1.18 µM (active)
- AC50 [28]: 0.0694 µM (active)
- IC50 [29]: 10.6 µM (active)
- AC50 [30]: 0.941 µM (active)
- IC50 [31]: > 64.6 µM (inactive)
- AC50 [32]: 0.133 µM (active)
- AC50 [33]: 0.0563 µM (active)
- IC50 [34]: > 64.6 µM (inactive)
- AC50 [35]: 0.323 µM (active)
- AC50 [36]: 0.582 µM (active)
- AC50 [37]: 0.232 µM (active)
- EC50 [38]: 0.765 µM (active)

Structure (SMILES): O=c1c(O)c(-c2ccc3c(c2)OCO3)oc2ccccc12
- EC50 [39]: > 85.3 µM (inactive)
- EC50 [19]: 41.7 µM (active)
- CC50 [40]: > 40 µM (active)
- EC50 [41]: > 85.3 µM (inactive)
- EC50 [38]: 23.1 µM (active)

Structure (SMILES): O=C(/C=C/c1ccco1)c1ccc(NC(=O)C23CC4CC(CC(C4)C2)C3)cc1
- EC50 [23]: 55.5 µM (active)
- IC50 [42]: 4.96 µM (active)
- AC50 [26]: > 380 µM (inactive)
